The term EC50 denotes the concentration giving half of the maximal effect.

This test concerns the target TASK-1 (K2P3.1), wild type (Homo sapiens, UniProt O14649). Description: two-electrode voltage clamp, Xenopus oocytes. In kind it is cell-based. (Two-electrode voltage clamp holds a large cell at a set potential and records current.)

TASK-1 (K2P3.1), wild type, sequence (O14649 whole entry): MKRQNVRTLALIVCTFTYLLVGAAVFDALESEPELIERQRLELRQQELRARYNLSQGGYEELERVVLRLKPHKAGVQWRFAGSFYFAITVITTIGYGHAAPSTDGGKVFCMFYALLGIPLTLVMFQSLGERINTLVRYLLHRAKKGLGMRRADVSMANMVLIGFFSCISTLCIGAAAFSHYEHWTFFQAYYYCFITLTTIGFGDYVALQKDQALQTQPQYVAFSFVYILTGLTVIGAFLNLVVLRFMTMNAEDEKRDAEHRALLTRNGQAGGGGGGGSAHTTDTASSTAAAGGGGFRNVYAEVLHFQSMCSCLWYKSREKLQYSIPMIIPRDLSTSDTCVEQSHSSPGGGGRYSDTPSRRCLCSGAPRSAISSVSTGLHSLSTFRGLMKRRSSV

As for `O=C(c1cccc(OC(F)(F)F)n1)N1CCN(Cc2c(-c3ccc(Cl)cc3)nc3ccccn23)CC1` [BAY 2341237, (4-{[2-(4-chlorophenyl)imidazo[1,2-a]pyridin-3-yl]methyl}piperazin-1-yl)[6-(trifluoromethoxy)pyridin-2-yl]methanone], the response was half-maximal at 7.6 nM (EC50).
